According to patent US9938316B2, “Selective inhibitors of α2 isoform of Na,K-ATPase and use thereof for reduction of intra-ocular pressure and as cardiotonic agents” (priority 2013, dated 2018):

Legend:
[1] = molecular target: T1, Na,K-ATPase α1β1 isoform complex (Homo sapiens, UniProt P05023); assay: biochemical; details: Ki ± S.E. α1, Table 2; α1β1
Description: (§1) Methods for transformation, culture of P. pastoris clones, protein expression of Na,K-ATPase human isoforms (α1β1, α2β1, α3β1), membrane preparation, solubilization of membranes in DDM, and purification on BD-Talon beads have been described in detail (6-9, 11, 25). In initial experiments the three purified isoform complexes (0.3-0.5 mg/ml) were eluted from the BD-Talon beads in a solution containing Imidazole 170 mM, NaCl 100 mM; Tricine.HCl 20 mM pH 7.4; C12E8, 0.1 mg/ml; SOPS 0.07 mg/ml cholesterol 0.01 mg/ml, glycerol 25%. In later experiments the isoforms complexes were reconstituted with purified FXYD1 on the BD-Talon beads together as described in detail in (10, 11) prior to elution of α1β1FXYD1, α2β1FXYD1 and α3β1FXYD1 complexes. The proteins were stored at −80° C. Protein concentration was determined with BCA (B9643 Sigma).
(§2) Inhibition of Na,K-ATPase activity of the detergent-soluble α1β1, α2β1, and α3β1 complexes by CG's was determined as described (6) using either the αβ or αβFXYD1 complexes. […] The K0.5K was estimated by varying K concentration in a medium containing a fixed total K+choline chloride of 60 mM, and constant NaCl of 140 mM. Curves were fitted to the Hill function v=Vmax*[S]^n/([S]^n+K^n), where S is the K concentration, n is the Hill coefficient and K^n is K0.5K. For comparison of different curves the ratio v/Vmax for each curve was calculated and replotted. In experiments to assess inhibition of Na,K-ATPase activity by cardiac glycosides of the present invention, the percent inhibition VCG/V0 was calculated and Ki values were obtained by fitting the data to the function VCG/V0=Ki/([CG]+Ki)+ c. Inhibition was estimated in 3-8 separate experiments and average Ki values ±SEM were calculated. Significance of differences between Kiα1 and Kiα2 was calculated by the unpaired Student's t-test (p values). […] P values <0.05 were considered significant.

[2] = molecular target: T2, Na,K-ATPase α2β1 isoform complex (Homo sapiens, UniProt P50993); assay: biochemical; type: biochemical; details: Ki ± S.E. α2, Table 2; α2β1
Description: as §1, §2

[3] = system: Na,K-ATPase α2β1 isoform complex; assay: biochemical; type: biochemical, human; details: for Selectivity ratio Ki α1/α2 ± S.E.: Kiα1β1/Kiα2β1; for Selectivity α1β1/α2/β1: ratio of Ki, Table 6
Description: as §1, §2

[4] = molecular target: T3, Na,K-ATPase α2β2 isoform complex (Homo sapiens, UniProt P50993); assay: biochemical
T3 construct: made in house; host or cells: Pichia pastoris SMD1165
Description: (§3) Human β1, β2 and β3 were cloned into the pHIL-D2 expression vector containing the human α1 or α2. pHIL-D2 expression vectors containing porcine (p) α1, human (h) α1 or human α2 with Hisx10 tagged porcine β1 were previously generated (7, 9). Human β1 (Accession: P05026), human β2 (Accession: P14415) and human β3 (Accession: […]) cDNAs in pSD5 vector were a gift from K. Geering Univ. Lausanne Switzerland. The open reading frames and flanking regions of hβ1, hβ2 and hβ3 (in pSD5) were amplified separately by polymerase chain reaction (PCR) using synthetic primers containing BglII and SalI cleavage sites. Each one of the amplified fragments were digested with BglII and SalI and ligated to BglII and SalI treated plasmid pHIL-D2-(pα1/His10pβ1) to generate pHIL-D2 (pα1/His10hβ1or2or3). hβ1, hβ2 and hβ3 containing fragments were excised from pHIL-D2-(pα1/His10hβ1or2or3) and subcloned into pHIL-D2-(hα1/His10pβ1) or pHIL-D2-(hα2/His10pβ1) to produce pHIL-D2-(hα1/His10hβ1or2or3) and pHIL-D2-(hα2/His10hβ1or2or3). The newly created plasmids were analyzed for correct integration and correct sequence of the insert by restriction enzymatic digestions and sequencing. DNA of each construct was prepared in large quantities in E. coli XL-1 Blue for Pichia pastoris transformation.
as §2

[5] = system: Na,K-ATPase α2β2 isoform complex; assay: biochemical; parameters: species or system human; details: ratio of Ki, Table 6
Description: as §3, §2

[6] = molecular target: T4, Na,K-ATPase α2β3 isoform complex (Homo sapiens, UniProt P50993); assay: biochemical
T4 construct: made in house; host or cells: Pichia pastoris SMD1165
Description: as §3, §2

[7] = system: Na,K-ATPase α2β3 isoform complex; assay: biochemical; parameters: species or system human; details: ratio of Ki, Table 6
Description: as §3, §2

[8] = molecular target: T1, Na,K-ATPase α1β1 isoform complex; assay: biochemical; parameters: made in house; host or cells: Pichia pastoris SMD1165; details: Ki, nM ± SEM α1β1, Table 6
Description: as §1, §2

[9] = molecular target: T2, Na,K-ATPase α2β1 isoform complex; assay: biochemical; type: biochemical; parameters: made in house; host or cells: Pichia pastoris SMD1165; details: Ki, nM ± SEM α2β1, Table 6
Description: as §1, §2

[10] = system: intra-ocular pressure (IOP) of rabbits; assay: 4-aminopyridine (4AP)-induced ocular hypertension in rabbits; type: in vivo, New Zealand white rabbits; details: applied topically prior to 4AP
Description: Intra-ocular pressure in rabbits was measured using of a “Reichert Model 30™ Pneumatonometer” after anesthetizing the cornea with local anesthetic.
Since the IOP reflects a balance of the inflow and outflow of aqueous humour, reduction of the increased 4AP-induced inflow of aqueous humour by cardiac glycosides should prevent the increase in IOP. Thus, the standard experimental design to test effects of cardiac glycosides involved topical application of the compounds (1 drop in each eye) 30 minutes prior to application of 4AP and measurement of IOP every 30 minutes over five hours. […] Each experiment was done three times, but the figures depict a representative experiment using a different rabbit for each concentration of the cardiac glycoside.
DGlyN or DMe (0.1 or 1 mM) were applied one hour after the first application of 4AP, which was added every two hours.
(§4) New Zealand white rabbits (3-3.5 kg) about 1 year old, of either sex, were housed individually in separate cages in animal room conditions on a reversed, 12-hour dark/light cycle. For the experiments the animals were transferred to rabbit restrainers in a quiet and calm atmosphere (FIG. 1). […] Animal care and treatment were subject to the approval of the institutional committee for animal experiments, Weizmann Institute IACUC permission (no 04270911-2).
(§5) IOP (mm Hg) of rabbits was measured using a calibrated Pneumatonometer (Model 30, Reichert technologies, FIG. 1). A local anesthetic Oxybuprocaine HCl (0.4%, 25 μl) was applied to each cornea about a minute before IOP measurements. Two baseline IOP readings were taken before topical administration of the CG (or PBS as control) and after half an hour (Zero time). […] At zero time one drop of 4AP (40 mg/ml, 30 μl) or IB-MECA (1 μM, 30 μl) was administered to both eyes of each rabbit IOP measurements were made at different times as indicated in each experiment. In the experiments for which the IOP was elevated for several hours, 4AP was added every […] or IB-MECA every 2 hours. […] In all cases the figures depict the average effect on IOP (i.e for four or six eyes) compared to control ±SEM. […] Significance of differences from the control was calculated by the unpaired Students t-test (p values), p values <0.05 were considered significant. Corneal thickness (μm) was measured using an ultrasonic pachymeter (Sonogage pachometer, Cleveland, USA), before and during the experiment with CG and 4AP treatments. The values represent averages of three independent measurements for each eye.

[11] = system: intra-ocular pressure (IOP) of rabbits; assay: IB-MECA-induced ocular hypertension in rabbits; type: in vivo, New Zealand white rabbits; details: single drop, 1 μM
Description: IB-MECA induces acute ocular hypertension by a different and well-defined mechanism. Namely, IB-MECA is a selective agonist of the A3-adenosine receptor, and rises aqueous humour inflow and IOP by activating Cl channels of the NPE cells (18, 19). […] FIG. 8A depicts the effects of DMe (0.1-1 mM) applied prior to the IB-MECA, and a similar result was obtained for DGlyN (not shown). FIG. 8B depicts effects of digoxigenin, DGlyN and DMe (1 mM) applied after the IB-MECA.
as §4, §5

`CCN1CCC(OC2C(O)CC(OC3C(O)CC(OC4CCC5(C)C(CCC6C5CC(O)C5(C)C(C7=CC(=O)OC7)CCC65O)C4)OC3C)OC2C)OC(C)C1` (stereo not drawn) [DEt] was tested, and the Ki [1] was 0.053 ± 0.0034 µM, the Ki [2] was 0.0185 ± 0.0049 µM and the “Selectivity ratio Ki α1/α2 ± S.E.” value [3] was 2.88 ± 0.78. The “Selectivity α1β1/α2/β1” value [3] was 5.9, the Ki [4] was 0.0164 ± 0.0016 µM and the “Selectivity α1β1/α2/β2” value [5] was 8.3. For the same compound, the Ki [6] was 0.0144 ± 0.00127 µM, the “Selectivity α1β1/α2β3” value [7] was 9.5 and the Ki [8] was 138 ± 12.6 nM. The Ki [9] was 23.2 ± 0.9 nM.
In the case of `CC(C)CN1CCC(OC2C(O)CC(OC3C(O)CC(OC4CCC5(C)C(CCC6C5CC(O)C5(C)C(C7=CC(=O)OC7)CCC65O)C4)OC3C)OC2C)OC(C)C1` (stereo not drawn) [DIB], the Ki [4] is reported as 0.01 ± 0.0008 µM, the Ki [6] is reported as 0.0058 µM and the “Concentration required to fully prevent the rise in IOP” value [10] is reported as over 30 µM. For the same compound, the Ki [8] was 92 ± 8.9 nM and the Ki [9] was 20.6 ± 1.4 nM.
With `CC1CN(C(C)C)CCC(OC2C(O)CC(OC3C(O)CC(OC4CCC5(C)C(CCC6C5CC(O)C5(C)C(C7=CC(=O)OC7)CCC65O)C4)OC3C)OC2C)O1` (stereo not drawn) [DIP] the “Selectivity α1β1/α2/β1” value [3] was 5.1, the Ki [4] was 0.0167 ± 0.0019 µM and the “Selectivity α1β1/α2/β2” value [5] was 8.9. For the same compound, the Ki [6] was 0.0103 ± 0.0018 µM, the “Selectivity α1β1/α2β3” value [7] was 14.4 and the Ki [8] was 149 ± 20.7 nM. It also gave a Ki [9] of 28.9 ± 1.7 nM.
With `CC1CN(CC(F)(F)F)CCC(OC2C(O)CC(OC3C(O)CC(OC4CCC5(C)C(CCC6C5CC(O)C5(C)C(C7=CC(=O)OC7)CCC65O)C4)OC3C)OC2C)O1` (stereo not drawn) [DMeCF3] the Ki [1] was 0.199 ± 0.033 µM, the Ki [2] was 0.044 ± 0.007 µM and the “Selectivity ratio Ki α1/α2 ± S.E.” value [3] was 4.50 ± 1.0. For the same compound, the “Selectivity α1β1/α2/β1” value [3] was 4.1, the Ki [4] was 0.0181 ± 0.0019 µM and the “Selectivity α1β1/α2/β2” value [5] was 6.5. For the same compound, the Ki [6] was 0.0124 ± 0.0015 µM, the “Selectivity α1β1/α2β3” value [7] was 9.6 and the Ki [8] was 119 ± 15 nM. It also gave a Ki [9] of 28.6 ± 0.9 nM.
`CCCN1CCC(OC2C(O)CC(OC3C(O)CC(OC4CCC5(C)C(CCC6C5CC(O)C5(C)C(C7=CC(=O)OC7)CCC65O)C4)OC3C)OC2C)OC(C)C1` (stereo not drawn) [DP] was tested, and the “Selectivity α1β1/α2/β1” value [3] was 4.8, the Ki [4] was 0.0105 ± 0.0018 µM and the “Selectivity α1β1/α2/β2” value [5] was 8.3. The Ki [6] was 0.0098 ± 0.0011 µM, the “Selectivity α1β1/α2β3” value [7] was 8.8 and the Ki [8] was 87.7 ± 7.9 nM. It also gave a Ki [9] of 18.3 ± 1.68 nM.
For `CC1CN(C[Si](C)(C)C)CCC(OC2C(O)CC(OC3C(O)CC(OC4CCC5(C)C(CCC6C5CC(O)C5(C)C(C7=CC(=O)OC7)CCC65O)C4)OC3C)OC2C)O1` (stereo not drawn) [DTMS], the “Selectivity α1β1/α2/β1” value [3] was 3.4, the Ki [4] was 0.015 µM and the “Selectivity α1β1/α2/β2” value [5] was 7.2. For the same compound, the Ki [6] was 0.0078 µM, the “Selectivity α1β1/α2β3” value [7] was 13.8 and the Ki [8] was 108 nM. It also gave a Ki [9] of 31.5 nM.
In the case of `CC1CN(C(C)(C)C)CCC(OC2C(O)CC(OC3C(O)CC(OC4CCC5(C)C(CCC6C5CC(O)C5(C)C(C7=CC(=O)OC7)CCC65O)C4)OC3C)OC2C)O1` (stereo not drawn) [DtB], the “Selectivity α1β1/α2/β1” value [3] is reported as 6.2, the Ki [4] is reported as 0.0184 ± 0.0011 µM and the “Selectivity α1β1/α2/β2” value [5] is reported as 7.3. The Ki [6] was 0.0163 ± 0.00028 µM, the “Selectivity α1β1/α2β3” value [7] was 8.2 and the Ki [8] was 135 ± 12.1 nM. It also gave a Ki [9] of 21.6 ± 5.6 nM.
In the case of `CNC(=O)[C@H]1O[C@@H](n2cnc3c(NCc4cccc(I)c4)ncnc32)[C@H](O)[C@@H]1O` [IB-MECA, reference compound], the “Effect on IOP” value [11] is reported as “significant but transient increase in IOP”.
